The text below walks through data of US20060167020A1, “Pyrazolopyrimidines as kinase inhibitors” (priority 2002, published 2006).

Structures can show the parent of a compound that is named as a salt.

Sequence of GSK-3β (P49841 whole entry, species assumed): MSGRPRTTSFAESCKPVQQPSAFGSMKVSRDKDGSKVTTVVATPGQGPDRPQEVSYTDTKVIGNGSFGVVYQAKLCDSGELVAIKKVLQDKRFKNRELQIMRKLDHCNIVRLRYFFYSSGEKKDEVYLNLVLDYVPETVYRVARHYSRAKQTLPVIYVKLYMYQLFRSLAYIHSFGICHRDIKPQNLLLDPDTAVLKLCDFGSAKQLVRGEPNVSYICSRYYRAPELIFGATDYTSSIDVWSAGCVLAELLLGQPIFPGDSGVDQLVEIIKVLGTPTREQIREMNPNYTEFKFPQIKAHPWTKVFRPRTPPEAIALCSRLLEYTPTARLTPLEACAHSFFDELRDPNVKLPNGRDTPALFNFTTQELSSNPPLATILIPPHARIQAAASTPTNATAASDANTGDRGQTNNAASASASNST

The experiment concerns the target GSK-3β (Homo sapiens, UniProt P49841). Put plainly: GSK3 kinase scintillation proximity assay (phosphorylation of biotinylated glycogen synthase peptide). Type of experiment: biochemical. Particulars: 20 nM kinase, 2.5 uM ATP, 2.8 uM peptide substrate, 40 minutes at room temperature; pIC50 = -log IC50 in Molar. The source says: The phosphorylated biotinylated peptide is then captured onto streptavidin coated scintillation proximity assay (SPA) beads from Amersham Technology, where the signal from the ^33P is amplified via the scintillant contained in the beads.
GSK-3β is commercially available or may be cloned and expressed in E coli using standard techniques to produce soluble, active protein. The production of active protein involves purification in two steps using Metal Chelate and Ion Exchange Chromatography. Protein eluting from Ion Exchange provides >90% pure product that may then be concentrated for use in high throughput screening.
The kinase was assayed at a concentration of 20 nM final in 100 mM HEPES, pH 7.2 containing 10 mM magnesium chloride, 0.1 mg/mL bovine serum albumin, 1 mM dithiothreitol, 0.3 mg/mL heparin, 2.8 uM peptide substrate, 2.5 uM ATP, and 0.2 uCi/well γ^33P]-ATP. After 40 minutes incubation at room temperature, the reaction was stopped by addition of 100 mM EDTA and […] in 100 mM HEPES, pH7.2 followed by an additional solution of diluted Streptavidin coated SPA beads in PBS, pH 7.2 to give a final concentration of 0.25 mg of beads per assay well in a 96-well microtiter plate.
10 mM stock solutions of the compounds of the invention in 100% DMSO are generated as a first step in the screening process. The second step involves the creation of dose response plates where these compounds are diluted 10-fold in 100% DMSO to 1 mM concentrations and subsequently serially diluted 3-fold in 100% DMSO across the plate by automated liquid handling such that the final top concentration of inhibitor is 0.033 mM in the 30 uL kinase assay. The third step involves the creation of the assay plates. This is achieved by transferring 1 uL of the compounds to assay plates by automated liquid handling. The fourth step is to perform the assay as described and count the resulting plates in the Packard TopCount NXT microplate scintillation and luminescence counter.
The final step is data acquisition and analysis where IC50 values are generated for each compound by normalizing curve data to the equation 100*(U1−C2)/(C1−C2) (where U1 is the cpm value, C2 is the background, and C1 is the maximum number of counts), then fitting the normalized data to the equation y=Vmax*(1−(x/(K+x))). The IC50 values were converted to pIC50 values, i.e., −log IC50 in Molar concentration. The data is expressed below in Table 1.
`Fc1ccc(/C=N/Nc2ncnc3c2cnn3-c2cccnc2)cc1` [Example 33, 4-Fluorobenzaldehyde (1-pyridin-3-yl-1H-pyrazolo[3,4-d]pyrimidin-4-yl)hydrazone] had an IC50 below 100 nM.
For `COc1cccc(-n2ncc3c(N/N=C/c4ccc(C(=O)NCCS(C)(=O)=O)cc4)ncnc32)n1` [Example 9, 4-((E)-{[1-(6-methoxypyridin-2-yl)-1H-pyrazolo[3,4-d]pyrimidin-4-yl]hydrazono}methyl)-N-[2-(methylsulfonyl)ethyl]benzamide] the value was below 100 nM; for `COc1cccc(-n2ncc3c(N/N=C/c4ccc(C(=O)NCCCN5CCCC5)cc4)ncnc32)n1` [Example 12, 4-((E)-{[1-(6-methoxypyridin-2-yl)-1H-pyrazolo[3,4-d]pyrimidin-4-yl]hydrazono}methyl)-N-(3-pyrrolidin-1-ylpropyl)benzamide], below 100 nM; for `COc1cccc(-n2ncc3c(N/N=C/c4cccnc4)ncnc32)n1` [Example 2, Nicotinaldehyde [1-(6-methoxypyridin-2-yl)-1H-pyrazolo[3,4-d]pyrimidin-4-yl]hydrazone], below 100 nM.
The result for `COc1cccc(-n2ncc3c(N/N=C/c4ccc(Cl)nc4)ncnc32)n1` [Example 5, 6-Chloronicotinaldehyde [1-(6-methoxypyridin-2-yl)-1H-pyrazolo[3,4-d]pyrimidin-4-yl]hydrazone] reads below 100 nM; that for `C(=N\Nc1ncnc2c1cnn2-c1ccccn1)/c1cccnc1` [Example 13, Nicotinaldehyde (1-pyridin-2-yl-1H-pyrazolo[3,4-d]pyrimidin-4-yl)hydrazone], 100 to 1000 nM; that for `COc1cccc(-n2ncc3c(N/N=C/c4ccncc4)ncnc32)n1` [Example 1, Isonicotinaldehyde [1-(6-methoxypyridin-2-yl)-1H-pyrazolo[3,4-d]pyrimidin-4-yl]hydrazone], below 100 nM.
For `CN(C)CCNS(=O)(=O)c1ccc(/C=N/Nc2ncnc3c2cnn3-c2ccccn2)cc1` [Example 19, N-[2-(Dimethylamino)ethyl]-4-{(E)-[(1-pyridin-2-yl-1H-pyrazolo[3,4-d]pyrimidin-4-yl)hydrazono]methyl}benzenesulfonamide] the value was 100 to 1000 nM; for `CN(C)CCCNC(=O)c1ccc(/C=N/Nc2ncnc3c2cnn3-c2cccc3[nH]cnc23)cc1` [Example 32, 4-((E)-{[1-(1H-benzimidazol-4-yl)-1H-pyrazolo[3,4-d]pyrimidin-4-yl]hydrazono}methyl)-N-[3-(dimethylamino)propyl]benzamide], below 100 nM.
As to `CS(=O)(=O)c1ccc(/C=N/Nc2ncnc3c2cnn3-c2cccc3[nH]cnc23)cc1` [Example 30, 4-(Methylsulfonyl)benzaldehyde [1-(1H-benzimidazol-4-yl)-1H-pyrazolo[3,4-d]pyrimidin-4-yl]hydrazone], the IC50 is below 100 nM.
For `CN(C)CCNS(=O)(=O)c1ccc(/C=N/Nc2ncnc3c2cnn3-c2nccs2)cc1` [Example 25, N-[2-(Dimethylamino)ethyl]-4-((E)-{[1-(1,3-thiazol-2-yl)-1H-pyrazolo[3,4-a]pyrimidin-4-yl]hydrazonol}methyl)benzenesulfonamide] the value was below 100 nM.
Molecule `Fc1ccc(/C=N/Nc2ncnc3c2cnn3-c2cccc3[nH]cnc23)cc1` [Example 29, 4-Fluorobenzaldehyde [1-(1H-benzimidazol-4-yl)-1H-pyrazolo[3,4-d]pyrimidin-4-yl]hydrazone] had an IC50 below 100 nM.
For `CS(=O)(=O)CCNC(=O)c1ccc(/C=N/Nc2ncnc3c2cnn3-c2ccccn2)cc1` [Example 22, N-[2-(Methylsulfonyl)ethyl]-4-{(E)-[(1-pyridin-2-yl-1H-pyrazolo[3,4-d]pyrimidin-4-yl)hydrazono]methyl}benzamide] the value was 100 to 1000 nM.
For `O=C(O)c1ccc(/C=N/Nc2ncnc3c2cnn3-c2ccccn2)cc1` [Example 20, 4-{(E)-[(1-pyridin-2-yl-1H-pyrazolo[3,4-d]pyrimidin-4-yl)hydrazono]methyl}benzoic acid] the value was 1000 to 10000 nM; for `O=C(O)c1ccc(/C=N/Nc2ncnc3c2cnn3-c2cccc3[nH]cnc23)cc1` [Example 31, 4-((E)-{[1-(1H-benzimidazol-4-yl)-1H-pyrazolo[3,4-d]pyrimidin-4-yl]hydrazono}methyl)benzoic acid], below 100 nM; for `COc1cccc(-n2ncc3c(N/N=C/c4ccnc(Cl)c4)ncnc32)n1` [Example 4, 2-Chloroisonicotin aldehyde [1-(6-methoxypyridin-2-yl)-1H-pyrazolo[3,4-d]pyrimidin-4-yl]hydrazone], 100 to 1000 nM.
For `C(=N\Nc1ncnc2c1cnn2-c1ccncc1)/c1ccncc1` [Example 26, Isonicotinaldehyde (1-pyridin-4-yl-1H-pyrazolo[3,4-d]pyrimidin-4-yl)hydrazone] the value was below 100 nM; for `C(=NNc1ncnc2c1cnn2-c1cccc2[nH]cnc12)c1ccncc1` [Example 28, Isonicotinaldehyde [1-(1H-benzimidazol-4-yl)-1H-pyrazolo[3,4-d]pyrimidin-4-yl]hydrazone], below 100 nM.
For the molecule `CN(C)c1ccc(/C=N/Nc2ncnc3c2cnn3-c2ccccn2)cn1` [Example 18, 6-(Dimethylamino)nicotinaldehyde (1-pyridin-2-yl-1H-pyrazolo[3,4-d]pyrimidin-4-yl)hydrazone], the IC50 was 1000 to 10000 nM.
The result for `CC(C)(C)OC(=O)N1CCC(/C=N/Nc2ncnc3c2cnn3-c2ccccn2)CC1` [Example 15, tert-Butyl 4-{(E)-[(1-pyridin-2-yl-1H-pyrazolo[3,4-d]pyrimidin-4-yl)hydrazono]methyl}piperidine-1-carboxylate] reads 1000 to 10000 nM.
The result for `COc1cccc(-n2ncc3c(N/N=C/c4ccc(N(C)C)nc4)ncnc32)n1` [Example 3, 6-(Dimethylamino)nicotinaldehyde [1-(6-methoxypyridin-2-yl)-1H-pyrazolo[3,4-d]pyrimidin-4-yl]hydrazone] reads 100 to 1000 nM; that for `Nc1ccc(/C=N/Nc2ncnc3c2cnn3-c2ccccn2)cn1` [Example 17, 6-Aminonicotinaldehyde (1-pyridin-2-yl-1H-pyrazolo[3,4-d]pyrimidin-4-yl)hydrazone trifluoroacetate], 1000 to 10000 nM.
As to `C(=NNc1ncnc2c1cnn2-c1nccs1)c1cccnc1` [Example 23, Nicotinaldehyde [1-(1,3-thiazol-2-yl)-1H-pyrazolo[3,4-d]pyrimidin-4-yl]hydrazone], the IC50 is 100 to 1000 nM.
For `C(=N\Nc1ncnc2c1cnn2-c1ccccn1)/c1ccncc1` [Example 14, Isonicotinaldehyde (1-pyridin-2-yl-1H-pyrazolo[3,4-d]pyrimidin-4-yl)hydrazone] the value was 1000 to 10000 nM; for `COc1cccc(-n2ncc3c(N/N=C/c4ccc(C(=O)O)cc4)ncnc32)n1` [Example 8], 100 to 1000 nM; for `C(=NNc1ncnc2c1cnn2-c1nccs1)c1ccncc1` [Example 24, Isonicotinaldehyde [1-(1,3-thiazol-2-yl)-1H-pyrazolo[3,4-d]pyrimidin-4-yl]hydrazone], below 100 nM.
`COc1cccc(-n2ncc3c(N/N=C/c4ccc(S(=O)(=O)NCCN5CCOCC5)cc4)ncnc32)n1` [Example 7, 4-((E)-{[1-(6-methoxypyridin-2-yl)-1H-pyrazolo[3,4-]pyrimidin-4-yl]hydrazono}methyl)-N-(2-morpholin-4-ylethyl)benzenesulfonamide] had an IC50 below 100 nM.
The result for `COc1cccc(-n2ncc3c(N/N=C/c4ccc(S(=O)(=O)NCCN(C)C)cc4)ncnc32)n1` [Example 6, N-[2-(Dimethylamino)ethyl]-4-((E)-{[1-(6-methoxypyridin-2-yl)-1H-pyrazolo[3,4-d]pyrimidin-4-yl]hydrazono}methyl)benzenesulfonamide] reads below 100 nM; that for `COc1cccc(-n2ncc3c(N/N=C/c4ccc(C(=O)NCCCN(C)C)cc4)ncnc32)n1` [Example 11, N-[3-(Dimethylamino)propyl]-4-((E)-{[1-(6-methoxypyridin-2-yl)-1H-pyrazolo[3,4-a]pyrimidin-4-yl]hydrazono}methyl)benzamide], below 100 nM; that for `COc1cccc(-n2ncc3c(N/N=C/c4ccc(C(=O)NCCN(C)C)cc4)ncnc32)n1` [Example 10, N[2-(Dimethylamino)ethyl]-4-((E)-{[1-(6-methoxypyridin-2-yl)-1H-pyrazolo[3,4-d]pyrimidin-4-yl]hydrazono}methyl)benzamide], below 100 nM.
